The values below come from patent publication US20210386668A1, “Cyclodextrin for use in the treatment and prevention of late phase bronchoconstriction in allergen-induced asthma” (Universite de Liege, priority 2020, published 2021).

This data set has as its system BALB/c mice, house dust mite (HDM)-induced inflammation and AHR. The format is in vivo. The protocol:
The impact of HPBCD on asthma-associated inflammation and bronchial hyperresponsiveness was investigated in a mouse model of airway inflammation and hyperresponsiveness.
Six to seven mice per group were tested. Two-tailed Mann-Whitney test were performed with p-values of *P<0.05, **P<0.01 in two independent experiments.
Two intranasal instillations of house dust mite were performed on days 0 and 7 to induce the migration of specific memory CD4+ T-cells into lung parenchyma, followed by a challenge instillation on day 14. […] The last house dust mite instillation was preceded by two days of HPBCD or PBS inhalations and followed by three inhalations until sacrifice (FIG. 1A). […] Airway responsiveness was evaluated by exposing animals to increasing doses of inhaled methacholine and by measuring Newtonian resistances representing the resistance of central or conducting airways. […] The bronchoalveolar lavage fluid (BALF) was then recovered and analyzed for cell content. […] The effect of HPBCD inhalation on T-cell numbers in lung parenchyma was investigated by flow cytometry.
Males BALB/c mice of 6 to 8 weeks old were purchased from Janvier Labs (Saint-Berthevin, France). All mice were bred and housed in University facilities. All experiences and protocols were previously approved by local ethic (animal care and use) committee from the University of Liege.
Mice were lightly isoflurane-anesthetized and received an intra-nasal (i.n) instillation of HDM extract (100 μg; 50 μl) in endotoxin-free saline on days 0, 7 and 14. Mice were subjected to inhalation (generated by ultrasonic nebulizer (Devilbiss 2000)) of HPBCD 10 mM or endotoxin-free saline for 40 minutes between day 12 and 16. On day 14, they received the inhalation 1 h before the last i.n. instillation of HDM. After measurement of bronchial responsiveness using the FlexiVent System, mice were sacrificed on day 17. Mice submitted to ovalbumin as allergen were i.p injected with 10 mcg ovalbumin grade 5 and exposed to ovalbumin grade 3 by inhalation between day 21 and 25. Mice were treated with HPBCD 10 mM given by inhalation between day 19 and 25. After measurement of bronchial responsiveness using the FlexiVent System, mice were sacrificed on day 26.
Mice were anesthetized by intraperitoneal injection with a mixture of ketamine (10 mg/ml, Merial, Brussel, Belgium) and xylazine (1 mg/ml, VMD, Arendonk, Belgium). A tracheotomy was performed by insertion of a 20 gauge polyethylene catheter into the trachea. Mice were ventilated with a flexiVent small animal Ventilator® (SCIREQ, Montreal, Canada) as previously described (18). Respiratory parameters following methacholine challenge (3, 6, and 12 gr/l (or 24 gr/l)) were evaluated using a 3 sec broadband signal to measure input impedance from 1 to 20.5 Hz and to calculate constant-phase model parameters (Quick-prime 3). Newtonian resistance (Rn) was the main parameter measured during the challenge.
Mice were sacrificed and a bronchoalveolar lavage was performed using PBS-EDTA 0.05 mM (Calbiochem, Darmstadt, Germany). Cells were recovered by gentle manual aspiration. After centrifugation of bronchoalveolar fluid (BALF) (1200 rpm; 10 min; 4° C.), the cell pellet was resuspended in 0.5 ml PBS-EDTA 0.05 mM. The differential cell counts were performed on cytocentrifuged preparations (Cytospin) after Diff-Quick (Dade, Belgium) staining.
Left lung was excised and snap frozen in liquid nitrogen. Right lung was infused with 4% paraformaldehyde, embedded in paraffin and used for histology. Sections of 5 μm thickness were cut off from paraffin and were stained with haematoxylin-eosin to estimate the extent of inflammation (18) and with Alcian blue (mucin stain).
To obtain single-lung-cell suspensions, lungs were perfused with 10 ml HBSS through the right ventricle, razor-cut into small pieces and digested for 1 hour at 37° C. in 1 mg/ml collagenase A (Roche) and 0.05 mg/ml DNasel (Roche) in HBSS. […]

Molecules are shown by their SMILES.

For `CC(O)COC[C@H]1O[C@@H]2O[C@H]3[C@H](O)[C@@H](O)[C@@H](O[C@H]4[C@H](O)[C@@H](O)[C@@H](O[C@H]5[C@H](O)[C@@H](O)[C@@H](O[C@H]6[C@H](O)[C@@H](O)[C@@H](O[C@H]7[C@H](O)[C@@H](O)[C@@H](O[C@H]8[C@H](O)[C@@H](O)[C@@H](O[C@H]1[C@H](O)[C@H]2O)O[C@@H]8COCC(C)O)O[C@@H]7COCC(C)O)O[C@@H]6COCC(C)O)O[C@@H]5COCC(C)O)O[C@@H]4COCC(C)O)O[C@@H]3COCC(C)O` (stereo partly drawn) [HPBCD, 2-hydroxypropyl-beta-cyclodextrin], the “airway responsiveness to methacholine (Newtonian resistance)” value (HPBCD 10 mM inhalation vs PBS, HDM-challenged mice, FIG. 1B) is reported as “significantly decreased”. Further, the “extent of inflammation around the bronchi” value (HPBCD vs placebo, FIG. 1D) is on record as “reduced”. In addition, the “number of Alcian blue positive mucus producing epithelial cells” value (HPBCD vs placebo, FIG. 1E) is reported as “reduced”. For the same molecule, the “eosinophilic inflammation in BALF” value (HPBCD-exposed vs placebo, FIG. 1C) is listed as “significantly decreased”. Further, for the setting “mouse, in vivo”, the “number of TH2 cells (CD3+CD4+T1ST2+ ICOS+) in lung parenchyma” value is “nor the number of TH2 cells (CD3+CD4+T1ST2+ ICOS+) were modified” and the “number of total CD4+ T-cells (CD3+CD4+) in lung parenchyma” value is recorded as “Neither the number of total CD4+ T-cells (CD3+CD4+) nor the number of TH2 cells (CD3+CD4+T1ST2+ ICOS+) were modified”.
